Drawing on ChEMBL document CHEMBL1129456, “Synthesis and evaluation of two positron-labeled nitric oxide synthase inhibitors, S-[11C]methylisothiourea and S-(2-[18F]fluoroethyl)isothiourea, as potential positron emission tomography tracers” (J Med Chem, 1996), this text covers IC50 for 1 compound.

By IC50 is commonly meant the concentration at which inhibition is half-maximal. Low readings indicate higher potency, high ones lower potency.

Assay [1] deals with Nitric oxide synthase, inducible (Homo sapiens, UniProt P35228). Nature of the assay: The compound was evaluated for the inhibitory potencies using human Inducible nitric oxide synthase (hiNOS).
Nitric oxide synthase, inducible, sequence (P35228 whole entry): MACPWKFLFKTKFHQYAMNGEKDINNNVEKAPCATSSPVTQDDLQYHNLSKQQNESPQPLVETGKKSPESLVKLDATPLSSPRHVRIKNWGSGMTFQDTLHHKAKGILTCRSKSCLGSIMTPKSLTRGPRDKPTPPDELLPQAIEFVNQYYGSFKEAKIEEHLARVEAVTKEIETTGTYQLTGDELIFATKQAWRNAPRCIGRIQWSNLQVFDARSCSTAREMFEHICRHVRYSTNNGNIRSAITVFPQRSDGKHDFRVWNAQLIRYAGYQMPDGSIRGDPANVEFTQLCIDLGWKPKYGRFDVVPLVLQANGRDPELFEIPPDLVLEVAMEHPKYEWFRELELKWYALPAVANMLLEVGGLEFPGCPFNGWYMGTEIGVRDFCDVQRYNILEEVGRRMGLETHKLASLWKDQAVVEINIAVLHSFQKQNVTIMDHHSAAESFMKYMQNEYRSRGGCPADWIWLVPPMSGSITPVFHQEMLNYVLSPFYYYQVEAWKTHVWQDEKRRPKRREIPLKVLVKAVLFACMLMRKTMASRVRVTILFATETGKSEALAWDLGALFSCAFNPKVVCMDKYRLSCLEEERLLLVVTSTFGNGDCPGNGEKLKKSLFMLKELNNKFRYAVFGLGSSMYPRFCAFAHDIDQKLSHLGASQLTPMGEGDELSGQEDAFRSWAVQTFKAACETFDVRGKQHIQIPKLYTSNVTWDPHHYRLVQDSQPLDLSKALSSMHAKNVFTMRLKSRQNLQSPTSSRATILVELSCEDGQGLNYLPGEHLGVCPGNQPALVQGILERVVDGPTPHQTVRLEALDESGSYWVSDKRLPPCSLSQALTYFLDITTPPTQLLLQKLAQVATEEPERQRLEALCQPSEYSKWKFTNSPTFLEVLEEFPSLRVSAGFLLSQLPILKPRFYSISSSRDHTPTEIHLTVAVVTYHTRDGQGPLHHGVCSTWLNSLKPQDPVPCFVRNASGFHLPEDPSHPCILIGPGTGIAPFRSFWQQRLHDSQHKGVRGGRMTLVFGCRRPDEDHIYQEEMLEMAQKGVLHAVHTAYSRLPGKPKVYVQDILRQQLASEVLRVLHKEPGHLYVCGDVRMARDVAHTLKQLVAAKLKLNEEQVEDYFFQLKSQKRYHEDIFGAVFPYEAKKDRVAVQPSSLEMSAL
In another assay the target is T1, Nitric oxide synthase 3 (Homo sapiens, UniProt P29474).
T1 sequence (P29474 whole entry): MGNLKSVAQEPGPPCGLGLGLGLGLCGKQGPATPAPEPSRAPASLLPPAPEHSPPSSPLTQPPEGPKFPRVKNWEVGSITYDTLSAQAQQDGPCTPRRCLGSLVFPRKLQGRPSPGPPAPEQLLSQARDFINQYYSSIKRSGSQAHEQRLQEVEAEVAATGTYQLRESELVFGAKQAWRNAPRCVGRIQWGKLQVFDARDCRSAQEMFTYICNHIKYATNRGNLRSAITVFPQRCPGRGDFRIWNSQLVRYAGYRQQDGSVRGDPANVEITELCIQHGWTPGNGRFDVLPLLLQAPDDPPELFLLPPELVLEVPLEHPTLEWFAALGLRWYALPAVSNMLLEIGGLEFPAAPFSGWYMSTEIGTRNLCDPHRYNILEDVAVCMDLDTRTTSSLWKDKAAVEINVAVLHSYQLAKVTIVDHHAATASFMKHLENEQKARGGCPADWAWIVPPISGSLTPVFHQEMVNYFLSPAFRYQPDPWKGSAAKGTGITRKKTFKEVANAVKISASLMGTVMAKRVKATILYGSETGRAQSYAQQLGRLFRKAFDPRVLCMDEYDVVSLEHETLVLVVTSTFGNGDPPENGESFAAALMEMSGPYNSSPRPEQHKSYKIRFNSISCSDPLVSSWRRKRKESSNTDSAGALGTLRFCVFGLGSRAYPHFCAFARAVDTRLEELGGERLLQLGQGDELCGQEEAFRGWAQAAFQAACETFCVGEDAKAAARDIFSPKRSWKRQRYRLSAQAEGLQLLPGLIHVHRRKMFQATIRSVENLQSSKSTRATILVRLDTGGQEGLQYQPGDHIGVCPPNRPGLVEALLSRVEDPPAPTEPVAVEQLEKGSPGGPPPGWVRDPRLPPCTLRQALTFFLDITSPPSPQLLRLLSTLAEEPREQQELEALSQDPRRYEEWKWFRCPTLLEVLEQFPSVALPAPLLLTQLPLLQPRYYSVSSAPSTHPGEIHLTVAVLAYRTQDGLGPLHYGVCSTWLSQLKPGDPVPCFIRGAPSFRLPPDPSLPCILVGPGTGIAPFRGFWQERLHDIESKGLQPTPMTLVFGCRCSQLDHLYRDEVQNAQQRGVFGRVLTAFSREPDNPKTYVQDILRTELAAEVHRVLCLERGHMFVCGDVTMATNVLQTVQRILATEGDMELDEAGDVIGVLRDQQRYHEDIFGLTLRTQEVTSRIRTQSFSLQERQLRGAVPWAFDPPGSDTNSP
Nature of the assay: The compound was evaluated for the inhibitory potencies using human Endothelial nitric oxide synthase.

Turning to `N=C(N)SCCF`, the values for the half-maximal inhibitory concentration (IC50) (in assay [1]; against Nitric oxide synthase 3) were 0.14 µM and 1.26 µM, respectively.
